This assay deals with T1, StGE2 (Thermothelomyces thermophilus, UniProt G2QJR6).
T1 construct: gene ge2; produced in a P. pastoris strain from the OPTIBIOCAT consortium; construct not described
T1 sequence (G2QJR6 19-397): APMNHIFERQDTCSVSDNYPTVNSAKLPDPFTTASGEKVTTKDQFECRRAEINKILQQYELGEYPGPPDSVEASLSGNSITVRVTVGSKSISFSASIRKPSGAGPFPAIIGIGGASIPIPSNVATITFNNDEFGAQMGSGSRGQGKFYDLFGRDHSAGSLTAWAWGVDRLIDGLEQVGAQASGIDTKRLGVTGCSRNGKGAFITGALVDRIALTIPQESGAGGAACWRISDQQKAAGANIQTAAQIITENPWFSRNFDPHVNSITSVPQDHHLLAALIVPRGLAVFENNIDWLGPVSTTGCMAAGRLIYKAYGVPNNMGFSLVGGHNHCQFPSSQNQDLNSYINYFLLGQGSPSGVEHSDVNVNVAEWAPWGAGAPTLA
Nature of the assay: coupled spectrophotometric GlcA release (K-URONIC kit), relative activity. The assay is classed as biochemical. As to conditions: 2 mM substrate, pH 6.0, 35 °C, 30 min; purification of StGE2 not described.

Results on 1 compound are retold here after article PMC5486812, “Characterisation of three fungal glucuronoyl esterases on glucuronic acid ester model compounds” (Applied Microbiology and Biotechnology, 2017).

`O=C(OCc1ccccc1)[C@H]1OC(O)[C@H](O)[C@@H](O)[C@@H]1O` (stereo partly shown) [BnGlcA]: the “coupled spectrophotometric GlcA release (K-URONIC kit), relative activity” value is recorded as “enzyme action on BnGlcA produced the highest amount of hydrolysed glucuronic acid”.
